From article PMC3673537 (Bioorganic & medicinal chemistry, 2011) come the findings set out here.

The test system of one assay is HapR. The experiment in a line: Western blot against HapR. The assay is classed as cell-based, Vibrio cholerae. The settings on record: Supplementary data. (Immunoblotting shows a protein as a band on a membrane.)
The next assay concerns Tcp. The experiment in a line: Western blot against Tcp. The assay is classed as cell-based, Vibrio cholerae. The settings on record: Supplementary data.
Assay [1] deals with T1, CqsS (Vibrio cholerae serotype O1, UniProt Q9KM66). Kind of assay: Vibrio cholerae agonism bioassay. The settings on record: for % Response at the maximum concentration (50 μM): bioluminescence at 50 μM, with respect to CAI-1 at 100%; for agonist activity (in words): V. cholerae MM920 reporter, up to 50 μM.
T1 sequence (Q9KM66 whole entry, looked up): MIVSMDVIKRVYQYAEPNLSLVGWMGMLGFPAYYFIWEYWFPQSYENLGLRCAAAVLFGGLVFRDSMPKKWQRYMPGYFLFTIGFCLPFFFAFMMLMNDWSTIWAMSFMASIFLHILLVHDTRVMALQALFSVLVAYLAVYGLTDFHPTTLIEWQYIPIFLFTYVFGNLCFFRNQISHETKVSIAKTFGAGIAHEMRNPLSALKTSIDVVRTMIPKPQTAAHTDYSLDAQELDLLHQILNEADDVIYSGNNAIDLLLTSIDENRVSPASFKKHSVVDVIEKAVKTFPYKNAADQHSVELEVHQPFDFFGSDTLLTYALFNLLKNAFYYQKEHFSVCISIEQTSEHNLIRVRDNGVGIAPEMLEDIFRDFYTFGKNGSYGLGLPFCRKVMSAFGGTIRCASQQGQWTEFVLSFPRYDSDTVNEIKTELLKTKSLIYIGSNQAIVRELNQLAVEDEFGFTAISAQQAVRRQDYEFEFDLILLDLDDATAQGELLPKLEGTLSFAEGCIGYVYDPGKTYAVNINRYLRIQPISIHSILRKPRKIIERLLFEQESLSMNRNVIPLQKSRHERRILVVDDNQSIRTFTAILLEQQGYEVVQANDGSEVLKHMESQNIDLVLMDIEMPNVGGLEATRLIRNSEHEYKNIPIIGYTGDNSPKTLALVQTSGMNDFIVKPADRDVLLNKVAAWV
In assay [2] the target is T1, CqsS. The experiment in a line: Vibrio cholerae antagonism bioassay. The settings on record: for antagonist activity (in words): V. cholerae MM920 reporter with 1.0 μM CAI-1, up to 512 μM; for Ratio: IC50 (analog)/IC50 (Ph-CAI-1): using the IC50 of Ph-CAI-1 determined on the same day.

Marks after values point to notes of the source that are not given here.

For `CCCCCCCCCC(=O)[C@@H](O)CC` [Compound 1, (S)-3-hydroxytridecan-4-one], the “expression of HapR” value in the assay on HapR is recorded as “concomitant expression”. For the same molecule, the “expression of Tcp” value with Tcp is “significant reduction”. On to `CCCCCC(=O)[C@@H](O)CC` [Compound A1, (S)-3-Hydroxynonan-4-one], for which the “% Response at the maximum concentration (50 μM)” value at CqsS [1] is given as 27 ^e %. For `CCCCCCC(=O)[C@@H](O)CC` [Compound A2, (S)-3-Hydroxydecan-4-one], on CqsS [1], the “agonist activity (in words)” value is “essentially inactive” and the “% Response at the maximum concentration (50 μM)” value is 59 ^e %. For `CCCCCCCCCCCCC(=O)[C@@H](O)CC` [Compound A9, (S)-3-Hydroxyhexadecan-4-one], the “agonist activity (in words)” value at CqsS [1] was “essentially inactive”. As to `CCCCCCCCCC(=O)C(Cl)CC` (stereo not shown) [Compound B8, Cl-CAI-1], the “agonist activity (in words)” value at CqsS [1] is “inactive”. Take `CCCCCCCCCC(=O)C(O)C(C)(C)C` (stereo not shown) [Compound C4, 3-Hydroxy-2,2-dimethyltridecan-4-one]: the “agonist activity (in words)” value on CqsS [1] is “inactive”. As to `CCCCCCCCCC(=O)C(O)c1ccc(C)c(C)c1` (stereo not shown) [Compound C9, 1-Hydroxy-1-(3,4-dimethylphenyl)undecan-2-one], the “antagonist activity (in words)” value on CqsS [2] is reported as “abolishes activity”. Take `CCCCCCCCCC(=O)C(O)c1ccc(CC)cc1` (stereo not shown) [Compound C10, 1-(4-Ethylphenyl)-1-hydroxyundecan-2-one]: at CqsS [2], the IC50 (usually the point on the concentration scale where inhibition reaches its midpoint) is greater than 500 µM, the “antagonist activity (in words)” value is “inactive” and the “Ratio: IC50 (analog)/IC50 (Ph-CAI-1)” value is greater than 9. The corresponding values for `CCCCCCCCCC(=O)C(O)c1ccc(CCC)cc1` (stereo not shown) [Compound C11, 1-Hydroxy-1-(4-propylphenyl)-undecan-2-one] are greater than 500 µM, “inactive” and greater than 9. Take `CCCCCCCCCC(=O)C(O)c1ccc(Br)cc1` (stereo not shown) [Compound C28, 1-(4-Bromophenyl)-1-hydroxyundecan-2-one]: on CqsS [2], the “antagonist activity (in words)” value is “weak antagonist”.
